Assay results: patent publication US8841264B2, “Compositions” (DSM IP Assets B.V., priority 2006, dated 2014)
Like-named read-outs stand apart in the source and are kept apart here. Values belong to the compound of their own block, whether it stands above or below them.

Experiments:
[1] = tested on: nitric oxide production in RAW267.7 macrophages; experiment: Inhibition of nitric oxide production in LPS-activated macrophages (Griess reaction); format: cell-based, murine; conditions: for inhibition at 3.13 µM: 3.13 μmol/L; for inhibition at 3.125 µM: 3.125 μmol/L; for inhibition at 12.5 µM / % inhibition of NO production: 12.5 μmol/L
Description: (§1) The anti-inflammatory effects combinations of OH-tyrosol or oleuropein and representatives of other groups of natural substances (isoflavones, catechins, phtalides, hydroxylated biphenyls) were evaluated in activated macrophages by determining the inhibition of the synthesis of nitric oxide and/or pro-inflammatory prostaglandins (PG). PGE2 plays a critical role in the inflammation process, while nitric oxide (NO) is a hallmark of inflammation in various chronic inflammatory diseases including various forms of arthritis, gastro-intestinal diseases and metabolic syndrome.
(§2) The anti inflammatory effect of compounds was tested in cellular assays using a murine macrophage indicator cell line, RAW267.7, which was purchased from American Type Culture Collection, (ATCC) and cultured in DMEM according to the protocol provided by ATCC. Cells (˜50,000/well) were seeded into flat-bottomed microtiter plates and cultured for one day. Cells were then starved in complete medium containing 0.25% FCS (D-025). After overnight culture, medium was removed and replaced by 100 μL of D-025 containing the test compounds at twice the final concentration. Subsequently, 100 μL of D-025 containing 2 μg/ml LPS was added (i.e. final LPS concentration of 1 μg/ml) and the cells cultured for 24 hours. Substances were usually tested in a concentration range from 0.2 to 50 μM (or μg/ml in the case of extracts) in two-fold dilution steps. Concentrations of nitrite which was generated from nitric oxide released by cells were determined by the Griess reaction using sodium nitrite as standard (see e.g Imai et al. Biochem Biophys Res Comm, 197, 105 [1993]). Briefly, 50 μl of supernatant was mixed with Griess reagent 1 (25 μL) and Griess reagent 2 (25 μL), centrifuged and the optical density at 540 nm determined. PGE2 secreted into the cell culture medium was determined by EIA obtained from Cayman Chemicals ([…]) and used according to the manufacturer's instructions. IC50 values were calculated using a […] least-square fitting equation [y=A+((B−A)/(1+((C−x)^D))] for best-fit curves (Excel fit software program).
(§3) In a methodological approach that was similar to that described for Example 1, the synergistic effect of lycopene, resveratrol and OH-tyrosol was tested on the inflammatory response. Dose-dependent effects of each substance on the production of nitric oxide or PGE2 in macrophages were determined.

[2] = tested on: PGE2 production in RAW267.7 macrophages; experiment: Inhibition of PGE2 production in LPS-activated macrophages (EIA); format: cell-based, murine
Description: as §1, §2, §3

[3] = Mus musculus, Macrophage, Example 2, read-out: % inhibition of NO production
[4] = Mus musculus, Macrophage, Example 2, read-out: IC50 of pure compound (NO production)
[5] = Mus musculus, Macrophage, single substance, RAW267.7, LPS 1 μg/ml, 24 hours, read-out: IC50 Nitric Oxide
[6] = Mus musculus, Macrophage, Example 2, read-out: IC50 of pure compound (PGE2 production)
[7] = Mus musculus, Macrophage, single substance, RAW267.7, LPS 1 μg/ml, 24 hours, read-out: IC50 PGE2
[8] = Mus musculus, Macrophage, read-out: % inhibition of NO production

Compound: C=CCc1ccc(O)c(-c2ccc(O)c(CC=C)c2)c1 [Honokiol, 3′,5-Diallyl-2,4′-biphenyldiol]
inhibition at 12.5 µM [1, 8]: 66%
IC50 [1, 5]: 8 ± 1 µM
IC50 [2, 7]: 1 ± 0.2 µM

Compound: (−)-epigallocatechin gallate [EGCG]
% inhibition of NO production [1]: 12%
IC50 ([1]; single substance, RAW267.7, LPS 1 μg/ml, 24 hours, read-out: IC50 Nitric Oxide): 33 ± 2 µM
IC50 ([2]; single substance, RAW267.7, LPS 1 μg/ml, 24 hours, read-out: IC50 PGE2): 35 ± 3 µM

Compound: O=c1c(-c2ccc(O)cc2)coc2cc(O)cc(O)c12 [Genistein, 4′,5,7-trihydroxyisoflavone]
inhibition at 25 µM ([1]; Mus musculus, Macrophage, 25 μmol/L, read-out: % inhibition of NO production): 40%
IC50 [1, 5]: 37 ± 2 µM
IC50 [2, 7]: 4.6 ± 0.6 µM

The next lines start with results.

IC50 [1, 4]: 19.3 µM
IC50 [1, 5]: 31 ± 2 µM
IC50 [2, 6]: 23.4 µM
IC50 [2, 7]: 24 ± 2 µM
Compound: Oc1ccc(/C=C/c2cc(O)cc(O)c2)cc1 [Resveratrol, (trans)-resveratrol]
inhibition at 3.13 µM [1, 3]: -2%

IC50 [1, 5]: 52 ± 5 µM
IC50 [2, 7]: 60 ± 10 µM
Compound: C/C=C1/[C@H](O[C@@H]2O[C@H](CO)[C@@H](O)[C@H](O)[C@H]2O)OC=C(C(=O)OC)[C@H]1CC(=O)OCCc1ccc(O)c(O)c1 [Oleuropein, oleuropein]
inhibition at 3.125 µM [1, 8]: 2%
inhibition at 12.5 µM [1, 8]: 8%

IC50 [1, 4]: > 8 µM
IC50 [2, 6]: > 8 µM
Compound: CC(C)=CCC/C(C)=C/C=C/C(C)=C/C=C/C(C)=C/C=C/C=C(C)/C=C/C=C(C)/C=C/C=C(\C)CCC=C(C)C [Lycopene (Ly), ψ,ψ carotene]
inhibition at 0.5 µM ([1]; Mus musculus, Macrophage, Example 2, 0.5 μmol/L, read-out: % inhibition of NO production): 4%
anti-inflammatory effect (production of nitric oxide or PGE2 in macrophages) ([1]; at <8 μmol/L): no anti-inflammatory effect
inhibition at 0.25 µM ([2]; Mus musculus, Macrophage, Example 2, 0.25 μmol/L): -5%

IC50 [1, 4]: 24.1 µM
IC50 [1, 5]: 28 ± 2 µM
IC50 [2, 6]: 22.7 µM
IC50 [2, 7]: 24 ± 3 µM
Compound: OCCc1ccc(O)c(O)c1 [OH-Tyrosol, 2-(3,4-dihydroxyphenyl)-ethanol]
% inhibition of NO production [1]: 33%
inhibition at 6.25 µM ([1]; Mus musculus, Macrophage, 6.25 μmol/L, read-out: % inhibition of NO production): 7%
inhibition at 3.13 µM [1, 3]: -4%

IC50 [1, 5]: 15 ± 1 µM
IC50 [2, 7]: 10 ± 2 µM
Compound: CCC/C=C1\OC(=O)C2=C1CCC=C2 [Ligustilide, ligustilide]
inhibition at 3.125 µM [1, 8]: 28%
inhibition at 12.5 µM [1, 8]: 38%
